# According to patent US5063208A, “Peptidyl aminodiol renin inhibitors” (Abbott Laboratories, priority 1990, dated 1991):
# Biological target: T1, human renal renin (Homo sapiens, UniProt P00797)
# T1 construct: human renal renin, free from acid proteolytic activity; from tissue
# T1 sequence (P00797 67-406): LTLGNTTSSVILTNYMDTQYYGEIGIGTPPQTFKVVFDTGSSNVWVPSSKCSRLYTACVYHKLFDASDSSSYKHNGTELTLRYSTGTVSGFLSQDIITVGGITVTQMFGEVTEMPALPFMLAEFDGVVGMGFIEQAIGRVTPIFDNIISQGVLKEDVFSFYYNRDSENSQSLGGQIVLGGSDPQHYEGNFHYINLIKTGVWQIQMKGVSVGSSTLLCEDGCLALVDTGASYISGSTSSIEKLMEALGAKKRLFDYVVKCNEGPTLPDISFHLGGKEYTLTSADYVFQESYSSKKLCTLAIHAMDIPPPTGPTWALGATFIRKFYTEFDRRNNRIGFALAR
# Experiment: Inhibition of human renal renin in vitro (angiotensin I formed measured by radioimmunoassay)
# Assay type: biochemical
# Details: human renal renin free from acid proteolytic activity, renin substrate human angiotensinogen, 37 degrees C, pH 6.0; read-out: IC50 (molar concentration required to cause 50% inhibition)
# Experimental: The compounds of the invention are also useful for treating congestive heart failure in a mammal. […] At the end of the incubation, the amount of angiotensin I formed is measured by radioimmunoassay and the molar concentration required to cause 50% inhibition, expressed as the IC50, is calculated.
row,SMILES,IC50
1,"CC(C)C[C@H](O)[C@H](O)[C@H](CC1CCCCC1)NC(=O)[C@H](Cn1ccnc1)NC(=O)[C@@H](CC(=O)N(C)CCc1ccccn1)Cc1ccccc1 [Example 141, (2R)-2-Benzyl-3-[(2-pyridin-2-ylethyl)methylaminocarbonyl]propionyl-L-(1-imidazolyl)Ala Amide of (2S,3R,4S)-2-Amino-1-cyclohexyl-3,4-dihydroxy-6-methylheptane]",0.88 nM
2,"CC(C)C[C@H](O)[C@H](O)[C@H](CC1CCCCC1)NC(=O)[C@H](Cc1cscn1)NC(=O)[C@@H](CC(=O)N(C)CCc1c[nH]c2ccccc12)Cc1ccccc1 [Example 152, (2R)-2-Benzyl-3-[(2-indol-3-ylethyl)methylaminocarbonyl]propionyl-L-(4-thiazolyl)Ala Amide of (2S,3R,4S)-2-Amino-1-cyclohexyl-3,4-dihydroxy-6-methylheptane]",0.59 nM
3,"CC(C)C[C@H](O)[C@H](O)[C@H](CC1CCCCC1)NC(=O)[C@H](Cn1cccn1)N(C)C(=O)C(Cc1ccccc1)NC(=O)N(C)CCc1ccccn1 (stereo partly drawn) [Example 156, [(2-pyridin-2-ylethyl)methylcarbonyl]phenylalanine-L-(N-α-methyl)-(1-pyrazolyl)alanine Amide of (2S,3R,4S)-2Amino-1-cyclohexyl-3,4-dihydroxy-6-methylheptane]",1.3 nM

# Now those with a lower IC50, led by results:
row,IC50,SMILES
1,0.19 nM,"CC(C)C[C@H](O)[C@H](O)[C@H](CC1CCCCC1)NC(=O)[C@H](Cn1cccn1)NC(=O)[C@@H](CC(=O)N(C)CCn1cccn1)Cc1ccccc1 [Example 142, (2R)-2-Benzyl-3-[(2-pyrazol-1-ylethyl)methylaminocarbonyl]propionyl-L-(1-pyrazolyl)Ala Amide of (2S,3R,4S)-2-Amino-1-cyclohexyl-3,4-dihydroxy-6-methylheptane]"
2,0.28 nM,"CC(C)C[C@H](O)[C@H](O)[C@H](CC1CCCCC1)NC(=O)[C@H](Cc1cscn1)NC(=O)[C@@H](CC(=O)N(C)CCn1cccc1)Cc1ccccc1 [Example 153, (2R)-2-Benzyl-3-[(2-pyrrol-1-ylethyl)methylcarbonyl]propionyl-L-(4-thiazolyl)Ala Amide of (2S,3R,4S)-2-Amino-1-cyclohexyl-3,4-dihydroxy-6-methylheptane]"
3,0.21 nM,"CC(C)C[C@H](O)[C@H](O)[C@H](CC1CCCCC1)NC(=O)[C@H](Cc1cscn1)NC(=O)[C@@H](CC(=O)CCCc1ccncc1)Cc1ccccc1 [Example 154, (2R)-2-Benzyl-3-[(2-pyridin-4-ylethyl)methylcarbonyl]propionyl-L-(4-thiazolyl)Ala Amide of (2S,3R,4S)-2-Amino-1-cyclohexyl-3,4-dihydroxy-6-methylheptane]"
4,0.32 nM,"CC(C)C[C@H](O)[C@H](O)[C@H](CC1CCCCC1)NC(=O)[C@H](Cc1cc[nH]n1)NC(=O)[C@@H](CC(=O)N(C)CCN1CCOCC1)Cc1ccccc1 [Example 155, (2R)-2-Benzyl-3-[(2-morpholin-4-ylethyl)methylcarbonyl]propionyl-L-(3-pyrazolyl)Ala Amide of (2S,3R,4S)-2-Amino-1-cyclohexyl-3,4-dihydroxy-6-methylheptane]"
